Laboratory results as given in publication PMC6026081 (Bioorganic & medicinal chemistry letters, 2017).
pIC50: −log10 of the molar value.

Legend:
[1] = Cytotoxicity, growth inhibition of U-20S cells; type: cell-based; details: human
[2] = Cytotoxicity, growth inhibition of HEK293 cells; type: cell-based; details: human, HEK293 cells (kidney)
[3] = Cytotoxicity, growth inhibition of HC-04 cells; type: cell-based; details: human, HC-04 cells (hepatocyte)
[4] = Plasma exposure after single oral dose in non-infected mice; type: in vivo, male Swiss outbred mice; details: single 100 mg/kg oral dose; for plasma concentration maintained over the 48 h sampling period / plasma concentration by ~18 h post-dose: non-infected mice; for plasma concentration maintained over the 48 h sampling period: up to 48 h post-dose; for systemic exposure (AUC to last measured concentration) relative to 1: fold higher than 1
[5] = Kinetic solubility by nephelometry; type: physicochemical; details: concentration range; for Sol2.0: 0.01 M HCl (approx. pH 2.0); for Sol6.5: pH 6.5 phosphate buffer
[6] = cited from earlier work
[7] = test system: ex vivo S. mansoni; details: cited from earlier work
[8] = 46.3 mg/kg oral dose; cited from earlier work
[9] = test system: S. mansoni; details: 400 mg/kg dose; cited from earlier work

| Structure (SMILES) | pIC50 [1] | pIC50 [2] | pIC50 [3] | Sol2.0 [5] | Sol6.5 [5] | further results |
| --- | --- | --- | --- | --- | --- | --- |
| O=C(Nc1ccc(F)c(C(F)(F)F)c1)Nc1ccc(F)c(C(F)(F)F)c1 [Compd 1] | < 4.00 | < 4.00 | < 4.00 | <1.6/<1.6 μg/mL | <1.6/<1.6 μg/mL | plasma concentration maintained over the 48 h sampling period [4]: above 1 μM |
| O=C(Nc1ccnc(C(F)(F)F)c1)Nc1ccnc(C(F)(F)F)c1 [Compd 2] | < 4.00 | < 4.00 | < 4.00 | 12.5–25/12.5–25 μg/mL | 12.5–25/12.5–25 μg/mL | systemic exposure (AUC to last measured concentration) relative to 1 [4]: 2–4 fold |
| O=C(Nc1ccncc1)Nc1ccncc1 [Compd 3] | – | – | – | – | 12.5 to 25 µg/mL | – |
| O=C(Nc1cnccn1)Nc1cnccn1 [Compd 4] | – | – | – | 6.3–12.5/6.3–12.5 μg/mL | 6.3–12.5/6.3–12.5 μg/mL | – |
| O=C(Nc1ccc2c(c1)OC(F)(F)O2)Nc1ccc2c(c1)OC(F)(F)O2 [Compd 5] | < 4.00 | < 4.00 | < 4.00 | <1.6/<1.6 μg/mL | <1.6/<1.6 μg/mL | plasma concentration maintained over the 48 h sampling period [4]: > 5 µM |
| O=C(Nc1ccncc1)Nc1ccc(F)c(C(F)(F)F)c1 [Compd 6] | – | – | – | 6.3–12.5/6.3–12.5 μg/mL | 6.3–12.5/6.3–12.5 μg/mL | – |
| O=C(Nc1cccnc1)Nc1ccc(F)c(C(F)(F)F)c1 [Compd 7] | – | – | – | 50 to 100 µg/mL | 12.5 to 25 µg/mL | – |
| O=C(Nc1ccc(F)c(C(F)(F)F)c1)Nc1ccccn1 [Compd 8] | – | – | – | 1.6 to 3.1 µg/mL | – | – |
| O=C(Nc1ccc(F)c(C(F)(F)F)c1)Nc1cnccn1 [Compd 9] | – | – | – | 1.6 to 3.1 µg/mL | – | – |
| Cc1cc(NC(=O)Nc2ccc(F)c(C(F)(F)F)c2)on1 [Compd 10] | – | – | – | 12.5 to 25 µg/mL | 6.3 to 12.5 µg/mL | – |
| O=C(Nc1ccc(C(=O)O)cc1)Nc1ccc(F)c(C(F)(F)F)c1 [Compd 11] | – | – | – | – | 12.5 to 25 µg/mL | – |
| O=C(Nc1cccc(C(=O)O)c1)Nc1ccc(F)c(C(F)(F)F)c1 [Compd 12] | – | – | – | 1.6 to 3.1 µg/mL | 12.5 to 25 µg/mL | – |
| NC(=O)c1ccc(NC(=O)Nc2ccc(F)c(C(F)(F)F)c2)cc1 [Compd 13] | – | – | – | 6.3–12.5/6.3–12.5 μg/mL | 6.3–12.5/6.3–12.5 μg/mL | – |
| NC(=O)c1ccccc1NC(=O)Nc1ccc(F)c(C(F)(F)F)c1 [Compd 14] | – | – | – | 1.6–3.1/1.6–3.1 μg/mL | 1.6–3.1/1.6–3.1 μg/mL | – |
| N#Cc1ccc(NC(=O)Nc2ccc(F)c(C(F)(F)F)c2)cc1 [Compd 15] | < 4.00 | < 4.00 | < 4.00 | <1.6/<1.6 μg/mL | <1.6/<1.6 μg/mL | plasma concentration by ~18 h post-dose [4]: below 1 μM |
| CC(=O)c1ccc(NC(=O)Nc2ccc(F)c(C(F)(F)F)c2)cc1 [Compd 16] | – | – | – | <1.6/<1.6 μg/mL | <1.6/<1.6 μg/mL | – |
| O=C(Nc1ccc2c(c1)OC(F)(F)O2)Nc1ccc(F)c(C(F)(F)F)c1 [Compd 17] | < 4.00 | < 4.00 | < 4.00 | <1.6/<1.6 μg/mL | <1.6/<1.6 μg/mL | plasma concentration maintained over the 48 h sampling period [4]: > 5 µM |
| O=C(Nc1ccnc(C(F)(F)F)c1)Nc1ccc(F)c(C(F)(F)F)c1 [Compd 18] | < 4.00 | < 4.00 | < 4.00 | 3.1–6.3/3.1–6.3 μg/mL | 3.1–6.3/3.1–6.3 μg/mL | systemic exposure (AUC to last measured concentration) relative to 1 [4]: 2–4 fold |
| N#Cc1ccc(NC(=O)Nc2ccnc(C(F)(F)F)c2)cc1 [Compd 19] | < 4.00 | < 4.00 | < 4.00 | 1.6–3.1/1.6–3.1 μg/mL | 1.6–3.1/1.6–3.1 μg/mL | plasma concentration by ~18 h post-dose [4]: below 1 μM |
| O=C(Nc1ccnc(C(F)(F)F)c1)Nc1ccc2c(c1)OC(F)(F)O2 [Compd 20] | < 4.00 | < 4.00 | < 4.00 | 3.1–6.3/3.1–6.3 μg/mL | 3.1–6.3/3.1–6.3 μg/mL | plasma concentration maintained over the 48 h sampling period [4]: > 5 µM |
| O=C(Nc1ccc(Cl)c(Cl)c1)Nc1ccc(Cl)c(Cl)c1 [MMV665852] | – | – | – | – | – | LogD7.4 [6]: 5.2; in vitro selectivity index [7]: 64 fold; potency against ex vivo S. mansoni relative to praziquantel (fold less potent) [7]: 4 fold; half-life [8]: 4.7 h |
| O=C(C1CCCCC1)N1CC(=O)N2CCc3ccccc3C2C1 (stereo not shown) [praziquantel] | – | – | – | – | – | worm burden reduction [9]: 96% |
